Consider 18 molecules from patent US12227511B2, “Bicyclic compounds as kinase modulators, methods and uses thereof” (Agency for Science, Technology and Research, priority 2018, dated 2025).

The test system of one data set is HCCLM3 cells. As to the kind of experiment: GI50 in HCCLM3 cells, cell viability by MTS assay. In kind it is cell-based. To be noted: Homo sapiens, 72 hours incubation, triplicates, read-out: HCCLM3 activity range (GI50). How it is done:
To investigate the effects of compounds on hepatocellular carcinoma (HCC) cell viability, HCCLM3 cells (HCC cells with high metastatic potential) were incubated with increasing concentrations of test compounds for 72 hours. Cell viability was evaluated at the end of incubation period by MTS assay. […] All samples were evaluated in triplicates.
As set forth in Table 1 below, GI50 values are defined as follows: GI50≤10 μM (+++); GI50>10 μM and ≤20 μM (++); GI50>20 μM (+).
For orientation: Tetrazolium assays rely on reduction of a dye to a coloured formazan, in cell work by metabolically active cells.
With `COc1cc2nccc(Oc3ccc(NC(=O)C4(C(=O)NC56CC(C)(C5)C6)CC4)cc3)c2cc1OC` [Compound 10, N-(4-((6,7-dimethoxyquinolin-4-yl)oxy)phenyl)-N-(3-methylbicyclo[1.1.1]pentan-1-yl)cyclopropane-1,1-dicarboxamide], the GI50 (usually the concentration that inhibits growth by half) was at most 10 µM.
As to `COc1cc2nccc(Oc3ccc(NC(=O)C4(C(=O)NC56CC(NC(C)=O)(C5)C6)CC4)cc3)c2cc1OC` [Compound 13, N-(3-acetamidobicyclo[1.1.1]pentan-1-yl)-N-(4-((6,7-dimethoxyquinolin-4-yl)oxy)phenyl)cyclopropane-1,1-dicarboxamide], the concentration for 50% growth inhibition (GI50) is above 20 µM.
`COc1cc2nccc(Oc3ccc(NC(=O)C45CC(C(=O)NC67CC(F)(C6)C7)(C4)C5)cc3)c2cc1OC` [Compound 3, N^1-(4-((6,7-dimethoxyquinolin-4-yl)oxy)phenyl)-N3-(3-fluorobicyclo[1.1.1]pentan-1-yl)bicyclo[1.1.1]pentane-1,3-dicarboxamide]: the GI50 is above 20 µM.
Consider `COc1cc2nccc(Oc3ccc(NC(=O)C4(C(=O)N5C[C@@H]6[C@H](C5)[C@H]6C(N)=O)CC4)cc3)c2cc1OC` [Compound 22, EXO-3-(1-((4-((6,7-dimethoxyquinolin-4-yl)oxy)phenyl)carbamoyl)cyclopropane-1-carbonyl)-3-azabicyclo[3.1.0]hexane-6-carboxamide], for which the GI50 is above 20 µM.
With `COc1cc2nccc(Oc3ccc(NC(=O)C4(C(=O)NC56CC(c7cnccn7)(C5)C6)CC4)cc3)c2cc1OC` [Compound 9, N-(4-((6,7-dimethoxyquinolin-4-yl)oxy)phenyl)-N-(3-(pyrazin-2-yl)bicyclo[1.1.1]pentan-1-yl)cyclopropane-1,1-dicarboxamide], the 50% growth inhibitory concentration (GI50) was above 20 µM.
Consider `COc1cc2nccc(Oc3ccc(NC(=O)C4(C(=O)NC56CC(O)(C5)C6)CC4)cc3)c2cc1OC` [Compound 6, N-(4-((6,7-dimethoxyquinolin-4-yl)oxy)phenyl)-N-(3-hydroxybicyclo[1.1.1]pentan-1-yl)cyclopropane-1,1-dicarboxamide], for which the GI50 is above 20 µM.
On to `COc1cc2nccc(Oc3ccc(NC(=O)C4(C(=O)NC56CC(NC(=O)C7(C(=O)Nc8ccc(Oc9ccnc%10cc(OC)c(OC)cc9%10)cc8)CC7)(C5)C6)CC4)cc3)c2cc1OC` [Compound 14, N,N′-(bicyclo[1.1.1]pentane-1,3-diyl)bis(N-(4-((6,7-dimethoxyquinolin-4-yl)oxy)phenyl)cyclopropane-1,1-dicarboxamide)], for which the GI50 is above 20 µM.
Regarding `COc1cc2nccc(Oc3ccc(NC(=O)C4(C(=O)NC56CCC(CC5)C6)CC4)cc3)c2cc1OC` [Compound 25, N-((1s,4s)-bicyclo[2.2.1]heptan-1-yl)-N-(4-((6,7-dimethoxyquinolin-4-yl)oxy)phenyl)cyclopropane-1,1-dicarboxamide], the GI50 is at most 10 µM.
With `COc1cc2nccc(Oc3ccc(NC(=O)C4(C(=O)NC56CC(OC(=O)c7ccccc7)(C5)C6)CC4)cc3)c2cc1OC` [Compound 5, 3-(1-((4-((6,7-dimethoxyquinolin-4-yl)oxy)phenyl)carbamoyl)cyclopropane-1-carboxamido)bicyclo[1.1.1]pentan-1-yl benzoate], the GI50 is above 20 µM.
On to `COc1cc2nccc(Oc3ccc(NC(=O)C4(C(=O)N5C6CCCC5CCC6)CC4)cc3)c2cc1OC` [Compound 26, 1-((1s,5s)-9-azabicyclo[3.3.1]nonane-9-carbonyl)-N-(4-((6,7-dimethoxyquinolin-4-yl)oxy)phenyl)cyclopropane-1-carboxamide], for which the GI50 was above 20 µM.
As for `COc1cc2nccc(Oc3ccc(NC(=O)C4(C(=O)NC56CC(CO)(C5)C6)CC4)cc3)c2cc1OC` [Compound 32, N-(4-((6,7-dimethoxyquinolin-4-yl)oxy)phenyl)-N-(3-(hydroxymethyl)bicyclo[1.1.1]pentan-1-yl)cyclopropane-1,1-dicarboxamide], the GI50 is at most 10 µM.
As to `COc1cc2nccc(Oc3ccc(NC(=O)C4(C(=O)NC56CNCC5C6)CC4)cc3)c2cc1OC` (stereo not shown) [Compound 17, N-(3-azabicyclo[3.1.0]hexan-1-yl)-N-(4-((6,7-dimethoxyquinolin-4-yl)oxy)phenyl)cyclopropane-1,1-dicarboxamide], the GI50 is above 20 µM.
For `COc1cc2nccc(Oc3ccc(NC(=O)C4(C(=O)NC56CC(c7ccccc7)(C5)C6)CC4)cc3)c2cc1OC` [Compound 2, N-(4-((6,7-dimethoxyquinolin-4-yl)oxy)phenyl)-N-(3-phenylbicyclo[1.1.1]pentan-1-yl)cyclopropane-1,1-dicarboxamide], the GI50 was above 20 µM.
Consider `COc1cc2nccc(Oc3ccc(NC(=O)C4(C(=O)NC56CC(C5)C6)CC4)cc3)c2cc1OC` [Compound 1, N-(bicyclo[1.1.1]pentan-1-yl)-N-(4-(6,7-dimethoxyquinolin-4-yloxy)phenyl)cyclopropane-1,1-dicarboxamide], for which the GI50 was at most 10 µM.
`COc1cc2nccc(Oc3ccc(NC(=O)C4(C(=O)NC56CC(F)(C5)C6)CC4)cc3)c2cc1OC` [Compound 4, N-(4-((6,7-dimethoxyquinolin-4-yl)oxy)phenyl)-N-(3-fluorobicyclo[1.1.1]pentan-1-yl)cyclopropane-1,1-dicarboxamide]: the GI50 is at most 10 µM.

For the next data set, the system named is hepatocellular carcinoma (HCC).
Assay: not given
To be noted: HCC patients, Sorafenib vs placebo; cited from earlier work.
With `CNC(=O)c1cc(Oc2ccc(NC(=O)Nc3ccc(Cl)c(C(F)(F)F)c3)cc2)ccn1` [Sorafenib], the “increase of survival rate compared to a placebo” value was 2.8 months.

Staying with this data set, now noted: HCC patients, Sorafenib; cited from earlier work.
As for `CNC(=O)c1cc(Oc2ccc(NC(=O)Nc3ccc(Cl)c(C(F)(F)F)c3)cc2)ccn1` [Sorafenib], the median survival rate result is “about 10.7 months”.

A further data set relates to hepatocellular carcinoma (HCC).
Assay: not given
To be noted: HCC patients taking Stivarga (Regorafenib); cited from earlier work.
For `CNC(=O)c1cc(Oc2ccc(NC(=O)Nc3ccc(Cl)c(C(F)(F)F)c3)c(F)c2)ccn1` [Regorafenib], the median overall survival entry is recorded as “about 10.6 months”.

A further data set deals with hepatocellular carcinoma (HCC).
Assay: not given
Particulars: clinical; cited from earlier work.
On to `COc1cc2nccc(Oc3ccc(NC(=O)C4(C(=O)Nc5ccc(F)cc5)CC4)cc3)c2cc1OC` [Cabozantinib], for which the “incidence of adverse events (AEs) compared to Regorafenib” value is on record as “higher incidence of adverse events”.
